Assay results taken from PMC4754833, “Rilpivirine analogs potently inhibit drug-resistant HIV-1 mutants” (Retrovirology, 2016).

Columns and labels:
[1] = tested on: WT HIV-1; experiment: single round infection luciferase assay, WT HIV-1; assay type: cell-based; conditions: Human immunodeficiency virus 1
Experimental: (§1) The human osteosarcoma cell line, HOS, was obtained from Dr. Richard Schwartz (Michigan State University, East Lansing, MI) and grown in Dulbecco’s modified Eagle’s medium (Invitrogen, Carlsbad, CA) supplemented with 5 % (v/v) fetal bovine serum, 5 % newborn calf serum, and penicillin (50 units/ml) plus streptomycin (50 µg/ml; Quality Biological, Gaithersburg, MD). Virion production and single-round infectivity assays were used to determine antiviral activity (IC50 values) of the compounds as previously described.
(§2) pNLNgoMIVR-ΔEnv.LUC has been described previously. The RT open reading frame was removed from pNLNgoMIVR-ΔEnv.LUC (digestion with SpeI and SalI) and inserted between the SpeI and SalI sites of pBluescript II KS+. Using that construct as the wild-type template, we prepared the following HIV-1 RT mutants using the QuikChange II XL (Stratagene, La Jolla, CA) site-directed mutagenesis protocol kit: L100I, K103N, Y181C, Y188L, H221Y, K103N/Y181C, G190A, G190S, M230L, P236L, L100I/K103N, K103N/P225H, V106A/G190A/F227L, V106A, L234I, V106A/F227L, V106A/L234I, V106A/F227L/L234I, E40K, D67E, K101E, V111A, E138K, M184I, M184V, K101E/M184I, K101E/M184V, E138K/M184I, E138K/M184V, K101P, Y181I, and K101P/V179I. The following sense oligonucleotides were used with matching cognate antisense oligonucleotides (not shown) (Integrated DNA Technologies, Coralville, IA) in the mutagenesis: L100I, 5′-[…]-3′; L100I 2-103, 5′-[…]-3′; K103N, 5′-[…]-3′; Y181C, 5′-[…]-3′; Y188L, 5′-[…]-3′; H221Y, 5′-[…]-3′; G190A, 5′-[…]-3′; G190S, 5′-[…]-3′; P225H, 5′-[…]-3′; F227, 5′-[…]-3′; M230L, 5′-[…]-3′; P236L, 5′-[…]-3′; V106A, 5′-[…]-3′; L234I, 5′-[…]-3′; E40K, 5′-[…]-3′; D67E, 5′-[…]-3′; K101E, 5′-[…]-3′; V111A, 5′-[…]-3′; E138K, 5′-[…]-3′; M184I, 5′-[…]-3′; M184V, 5′-[…]-3′; K101P, 5′-[…]-3′; Y181I, 5′-[…]-3′; K101P/V179I, 5′-[…]-3′. The double mutants K103N/Y181C, K103N/P225H, and L100I/K103N were made using the previously generated K103N mutant and the appropriate oligonucleotides to add the second mutation, Y181C, P225, and L100I respectively. The double mutants V106A/F227L and V106A/L234I were prepared using the previously generated V106A mutant and the appropriate oligonucleotides to add the second mutation, F227L and L234I, respectively. The double mutants K101E/M184I and K101E/M184V were constructed using the previously generated K101E mutant and the appropriate oligonucleotides to add the second mutation, M184I and M184V, respectively. The double mutants E138K/M184I and E138K/M184V were constructed using the previously generated E138K mutant and the appropriate oligonucleotides for the second mutation, M184I and M184V, respectively. The triple mutant V106A/F227L/L234I was made using the previously generated V106A/F227L double mutant and the appropriate oligonucleotides for the third mutation, L234I. The triple mutant V106A/G190A/F227L was constructed in a series of steps using the previously generated V106A mutant and the appropriate oligonucleotides for the second mutation, G190A, to generate the double mutant V106A/G190A, and then the triple mutant was made using double mutant V106A/G190A and oligonucleotides for the third mutation, F227L. The DNA sequence of each construct was verified by DNA sequence determination. The sequences encoding the mutant RTs were then subcloned into pNLNgoMIVR-ΔEnv.LUC (between the KpnI and SalI sites) to produce the mutant HIV-1 constructs. These DNA sequences were also checked independently by DNA sequence determination.
(§3) 10.1186/s12977-016-0244-2 The IC50 values (nM) of RPV and the RPV analogs were determined against the NNRTI resistant mutants were measured by using a single round infection assay, n = 4. The concentrations (nM) are measured by reductions in luciferase reporter activity followed by the standard deviations. […]

[2] = tested on: HIV-1 RT mutant G190A; experiment: single round infection assay, G190A; assay type: cell-based; conditions: for IC50: Human immunodeficiency virus 1
Experimental: as §1, §2, §3

[3] = tested on: HIV-1 RT mutant G190S; experiment: single round infection assay, G190S; assay type: cell-based; conditions: Human immunodeficiency virus 1
Experimental: as §1, §2, §3

[4] = tested on: HIV-1 RT mutant L100I/K103N; experiment: single round infection assay, L100I/K103N; assay type: cell-based; conditions: for fold-change of IC50 of the mutant relative to WT: L100I/K103N vs WT; for IC50: ± SD, n=4, limit of detection 100 nM
Experimental: as §1, §2, §3

[5] = tested on: HIV-1 RT mutant K103N/P225H; experiment: single round infection assay, K103N/P225H; assay type: cell-based; conditions: for IC50: Human immunodeficiency virus 1; for fold-change of IC50 of the mutant relative to WT: K103N/P225H vs WT
Experimental: as §1, §2, §3

[6] = tested on: HIV-1 RT mutant V106A/F227L; experiment: single round infection assay, V106A/F227L; assay type: cell-based; conditions: for fold-change of IC50 of the mutant relative to WT: V106A/F227L vs WT; for IC50: ± SD, n=4
Experimental: as §1, §2, §3

[7] = tested on: HIV-1 RT mutant D67E; experiment: single round infection assay, D67E; assay type: cell-based; conditions: for fold-change of IC50 of the mutant relative to WT: D67E vs WT; for IC50: ± SD, n=4
Experimental: as §1, §2, §3

[8] = tested on: HIV-1 RT mutant K101E; experiment: single round infection assay, K101E; assay type: cell-based; conditions: for IC50: ± SD, n=4; for fold-change of IC50 of the mutant relative to WT: K101E vs WT
Experimental: as §1, §2, §3

[9] = tested on: HIV-1 RT mutant E138K/M184V; experiment: single round infection assay, E138K/M184V; assay type: cell-based; conditions: for fold-change of IC50 of the mutant relative to WT: E138K/M184V vs WT; for IC50: ± SD, n=4
Experimental: as §1, §2, §3

[10] = tested on: HIV-1 RT mutant K101P; experiment: single round infection assay, K101P; assay type: cell-based; conditions: for IC50: Human immunodeficiency virus 1; for fold-change of IC50 of the mutant relative to WT: K101P vs WT
Experimental: as §1, §2, §3

[11] = tested on: HIV-1 RT mutant K101P/V179I; experiment: single round infection assay, K101P/V179I; assay type: cell-based; conditions: for IC50: Human immunodeficiency virus 1; for fold-change of IC50 of the mutant relative to WT: K101P/V179I vs WT
Experimental: as §1, §2, §3

[12] = tested on: HIV-1 RT mutant L100I; parameters: method as in PMID 23217210; conditions: previous study; cited from earlier work
[13] = tested on: HIV-1 RT mutant H221Y; parameters: method as in PMID 23217210; conditions: previous study; cited from earlier work
[14] = Human immunodeficiency virus 1, D67E
[15] = Human immunodeficiency virus 1, K101E
[16] = Human immunodeficiency virus 1, E138K/M184V
[17] = Human immunodeficiency virus 1, L100I/K103N
[18] = Human immunodeficiency virus 1, V106A/F227L (selected by DOR)

| SMILES | IC50 [1] [nM] | IC50 [2] [nM] | IC50 [3] [nM] | fold-change of IC50 of the mutant relative to WT [4] | IC50 [5] [nM] | fold-change of IC50 of the mutant relative to WT [5] | fold-change of IC50 of the mutant relative to WT [6] | fold-change of IC50 of the mutant relative to WT [7] | IC50 [7, 14] [nM] | IC50 [8, 15] [nM] | fold-change of IC50 of the mutant relative to WT [8] | IC50 ([8]; K101E) [nM] | fold-change of IC50 of the mutant relative to WT [9] | IC50 ([9]; E138K/M184V) [nM] | IC50 [9, 16] [nM] | IC50 [10] [nM] | IC50 [11] [nM] | IC50 [12] [nM] | IC50 [13] [nM] | IC50 [4, 17] [nM] | also measured |
| --- | --- | --- | --- | --- | --- | --- | --- | --- | --- | --- | --- | --- | --- | --- | --- | --- | --- | --- | --- | --- | --- |
| Cc1cc(/C=C/C#N)cc(C)c1Nc1nc(Nc2ccc(C#N)cc2)ncc1N [compound 7] | 0.78 ± 0.2 | 0.3 | 0.4 ± 0.07 | 2 | 1.1 ± 0.25 | < 2 | < 2 | 6 | 4.5 ± 1.1 | < 2.5 | 3 | 2.3 ± 1.2 | 3 | 2.4 ± 0.2 | < 2.5 | 9 | 81.4 ± 8.1 | < 7 | < 7 | – | fold-change of IC50 of the mutant relative to WT [10]: 12; fold-change of IC50 of the mutant relative to WT [11]: 104 |
| Cc1cc(/C=C/C#N)cc(C)c1Nc1nc(Nc2ccc(F)cc2)c2nc[nH]c2n1 [compound 17] | 2.2 ± 0.4 | 1.6 ± 0.3 | 0.74 ± 0.11 | 29 | 3.4 ± 0.2 | < 2 | 19 | 12 | 26 | 8.9 | 4 | – | < 2 | – | 2.3 ± 0.02 | 100 | > 100 | < 7 | < 7 | 63.4 | – |
| COc1ccc(Nc2nc(Nc3c(C)cc(/C=C/C#N)cc3C)nc3[nH]cnc23)cc1 [compound 16] | 0.17 ± 0.01 | 0.37 ± 0.08 | 0.17 ± 0.05 | 11 | 2.7 ± 0.07 | 16 | 4 | 16 | < 2.5 | – | 5 | – | 10 | 1.7 ± 0.35 | < 2.5 | > 100 | > 100 | < 7 | < 7 | – | fold-change of IC50 of the mutant relative to WT ([2]; G190A vs WT): 2; IC50 ([7]; D67E): 2.7 ± 0.8 nM |
| Cc1cc(/C=C/C#N)cc(C)c1-n1cnc2cnc(Nc3ccc(C#N)cc3)nc21 [compound 27] | 0.58 ± 0.24 | 0.2 ± 0.1 | 0.1 ± 0.01 | 69 | 2.1 ± 0.93 | 4 | 5 | 2 | – | – | 2 | – | 3 | 1.8 ± 0.8 | < 2.5 | 4.9 | 16.6 | < 7 | < 7 | 39.8 | IC50 [6, 18]: < 5 nM; IC50 ([6]; V106A/F227L (selected by DOR)): 2.9 ± 0.3 nM; fold-change of IC50 of the mutant relative to WT [10]: 8; fold-change of IC50 of the mutant relative to WT [11]: 29 |
| Cc1cc(/C=C/C#N)cc(C)c1Nc1ncc(N)c(Nc2ccc(C#N)cc2)n1 [compound 9] | 1.3 ± 0.2 | 0.6 | 0.6 ± 0.07 | 34 | 4.6 ± 0.3 | 4 | 17 | 3 | < 6 | < 6 | 3 | 4.1 ± 1.5 | 4 | 5.5 ± 1 | < 6 | > 100 | > 100 | < 7 | < 7 | 44.1 | IC50 ([7]; D67E): 4.2 ± 0.8 nM |
| Cc1cc(/C=C/C#N)cc(C)c1Nc1ncc([N+](=O)[O-])c(Nc2ccc(C#N)cc2)n1 [compound 8] | 1.6 ± 0.2 | 0.24 ± 0.04 | 0.17 ± 0.02 | 3 | 1.2 ± 0.33 | – | 4 | 8 | 12.7 | 10.1 | 6 | – | < 2 | – | – | 9.9 | 29.8 ± 5.4 | < 7 | < 7 | < 5.4 | IC50 ([4]; L100I/K103N): 5.4 ± 0.35 nM; IC50 [6, 18]: < 5 nM; IC50 ([6]; V106A/F227L (selected by DOR)): 6.3 ± 2 nM; fold-change of IC50 of the mutant relative to WT [10]: 6; fold-change of IC50 of the mutant relative to WT [11]: 19 |
| CC(=O)c1ccc(Nc2nc(Nc3c(C)cc(/C=C/C#N)cc3C)nc3[nH]cnc23)cc1 [compound 14] | 0.41 ± 0.08 | 0.13 ± 0.04 | 0.35 ± 0.05 | 31 | 0.92 ± 0.14 | 2 | 12 | 4 | < 2.5 | < 2.5 | 4 | 1.7 ± 0.5 | 2 | – | – | > 100 | > 100 | < 7 | < 7 | 12.6 | IC50 [6, 18]: < 5 nM; IC50 ([6]; V106A/F227L (selected by DOR)): 4.9 ± 1.3 nM; IC50 ([7]; D67E): 1.7 ± 0.21 nM |
